Drawing on patent US12215100B2, “Anticancer compounds” (Pharma Mar, S.A., priority 2018, dated 2025), this text covers GI50 and IC50 for 18 compounds.

The test system of one assay is A549. Description: SRB colorimetric cytotoxicity assay, A549. It counts as cell-based, human. To be noted: Homo sapiens, lung carcinoma (NSCLC). In outline:
(§1)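 Human cancer cells (5×10^3/well; DMEM or RPMI for PSN-1, 10% FBS) attached overnight, then treated 72 h; time-zero plate fixed. Growth measured by SRB staining after glutaraldehyde fixation, absorbance 490 nm. GI50, TGI and LC50 interpolated via NCI algorithm from 4-parameter logistic fits of triplicates.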

The test system of the next assay is HT29. Description: SRB colorimetric cytotoxicity assay, HT29. The conditions noted are these: Homo sapiens, colorectal adenocarcinoma. It counts as cell-based, human. In outline:
as §1

A further assay has as its system MDA-MB-231. Description: SRB colorimetric cytotoxicity assay, MDA-MB-231. The format is cell-based, human. The conditions noted are these: Homo sapiens, breast adenocarcinoma. In outline: as §1
The next assay deals with PSN-1. Description: SRB colorimetric cytotoxicity assay, PSN-1. It counts as cell-based, human. To be noted: Homo sapiens, pancreatic adenocarcinoma. Summed up: as §1
In the next assay the test system is SK-HEP-1. To be noted: liver cancer cell line; WO2002066046; cited from earlier work.
A further assay concerns SNU-638. To be noted: gastric cancer cell line; WO2002066046; cited from earlier work.
In a further assay the test system is AGS. The conditions noted are these: gastric cancer cell line; WO2002066046; cited from earlier work.
For a further assay, the system named is SNU-216. The conditions noted are these: gastric cancer cell line; WO2002066046; cited from earlier work.
In another assay the test system is HepG2. To be noted: liver cancer cell line; WO2002066046; cited from earlier work.
In another assay the test system is Hep3B. The conditions noted are these: liver cancer cell line; WO2002066046; cited from earlier work.
[1] abbreviates: HT-29, 72 h, 72 hours treatment.
Where [2] appears, read: MDA-MB-231, 72 h, 72 hours treatment.

Each structure is given as a SMILES string.

As a reminder, the GI50 is the concentration that inhibits growth by half. Low values mean more potent growth inhibition, high ones less potent growth inhibition. Usually IC50 stands for the point on the concentration scale where inhibition reaches its midpoint.

Turning to `C=CCOc1cc([C@@H](CCC)NC(=O)[C@]2(C)CSC(/C(C)=N/OC(=O)CCCCCNC(=O)OC(C)(C)C)=N2)oc(=O)c1` [Compound 165], the concentration for 50% growth inhibition (GI50) in the assay on A549 (A549, 72 h, 72 hours treatment) was found to be 5.48 nM; with HT29 (setting [1]), 5.32 nM; in the assay on MDA-MB-231 (setting [2]) it was 7.41 nM; in the assay with PSN-1 (PSN1, 72 h, 72 hours treatment), 6.44 nM.

Consider `CCC[C@@H](NC(=O)[C@]1(C)CSC(/C(C)=N/OC(=O)CCCCCNC(=O)OC(C)(C)C)=N1)c1cc(OCC2CC2)cc(=O)o1` [Compound 166], for which the 50% growth inhibitory concentration (GI50) with A549 (A549, 72 h, 72 hours treatment) amounted to 4.73 nM; in the assay on HT29 (setting [1]), 4.57 nM; with MDA-MB-231 (setting [2]), 7.09 nM; in the assay on PSN-1 (PSN1, 72 h, 72 hours treatment) it was 6.3 nM.

On to `C=CCOc1cc([C@@H](CCC)NC(=O)[C@]2(C)CSC(/C(C)=N/OC(=O)[C@H]3O[C@@H]4OC(C)(C)O[C@@H]4[C@H]4OC(C)(C)O[C@H]43)=N2)oc(=O)c1` [Compound 170], for which the 50% growth inhibitory concentration (GI50) in the assay with A549 (A549, 72 h, 72 hours treatment) came to 3.01 nM; in the assay on HT29 (setting [1]) it was 2.41 nM; in the assay on MDA-MB-231 (setting [2]), 5.57 nM; in the assay on PSN-1 (PSN1, 72 h, 72 hours treatment), 2.71 nM.

Regarding `C=CCOc1cc([C@@H](CCC)NC(=O)[C@]2(C)CSC(/C(C)=N/OP(=O)(OCc3ccccc3)OCc3ccccc3)=N2)oc(=O)c1` [Compound 172], the GI50 in the assay on A549 (A549, 72 h, 72 hours treatment) was determined as 80.9 nM; with HT29 (setting [1]), 56.9 nM; in the assay on MDA-MB-231 (setting [2]), 108 nM; in the assay with PSN-1 (PSN1, 72 h, 72 hours treatment) it was 100 nM.

Consider `CCC[C@@H](NC(=O)[C@@H]1CSC(C(C)=O)=N1)c1cc(OCC2CC2)cc(=O)o1` [Compound 177], for which the 50% growth inhibitory concentration (GI50) was 2270 nM with A549 (A549, 72 h, 72 hours treatment); 1550 nM with HT29 (setting [1]); 1610 nM in the assay on MDA-MB-231 (setting [2]); more than 25500 nM in the assay on PSN-1 (PSN1, 72 h, 72 hours treatment).

As for `CCC[C@@H](NC(=O)[C@@H]1CSC(/C(C)=N/O)=N1)c1cc(OCC2CC2)cc(=O)o1` [Compound 178], the GI50 in the assay with A549 (A549, 72 h, 72 hours treatment) came to 41.7 nM; in the assay on HT29 (setting [1]) it was 76.1 nM; in the assay with MDA-MB-231 (setting [2]), 49.1 nM; in the assay with PSN-1 (PSN1, 72 h, 72 hours treatment), 36.8 nM.

In the case of `CCC[C@@H](NC(=O)[C@]1(C)CSC(/C(C)=N/O[C@H]2O[C@@H]3COC(C)(C)O[C@H]3[C@@H]3OC(C)(C)O[C@H]23)=N1)c1cc(OCC2CC2)cc(=O)o1` [Compound 179], the GI50 in the assay with A549 (A549, 72 h, 72 hours treatment) came to 9.04 nM; with HT29 (setting [1]) it was 6.48 nM; with MDA-MB-231 (setting [2]) it was 13.7 nM; in the assay on PSN-1 (PSN1, 72 h, 72 hours treatment), 14.3 nM.

For `CCC[C@@H](NC(=O)[C@]1(C)CSC(/C(C)=N/O[C@H]2O[C@H](CO)[C@@H](O)[C@@H]3OC(C)(C)O[C@H]23)=N1)c1cc(OCC2CC2)cc(=O)o1` [Compound 180], the concentration for 50% growth inhibition (GI50) was 593 nM in the assay on A549 (A549, 72 h, 72 hours treatment); 369 nM in the assay with HT29 (setting [1]); 417 nM with MDA-MB-231 (setting [2]); 529 nM with PSN-1 (PSN1, 72 h, 72 hours treatment).

Regarding `CCC[C@@H](NC(=O)[C@]1(C)CSC(/C(C)=N/O[C@H]2O[C@H](CO)[C@@H](O)[C@H](O)[C@@H]2O)=N1)c1cc(OCC2CC2)cc(=O)o1` [Compound 181], the GI50 is more than 17100 nM with A549 (A549, 72 h, 72 hours treatment); 4970 nM in the assay on HT29 (setting [1]); 6340 nM with MDA-MB-231 (setting [2]); 6850 nM in the assay with PSN-1 (PSN1, 72 h, 72 hours treatment).

Regarding `C=C(C)C1=N[C@](C)(C(=O)N[C@H](CCC)c2cc(OCC3CC3)cc(=O)o2)CS1` [Compound 182], the concentration for 50% growth inhibition (GI50) in the assay on A549 (A549, 72 h, 72 hours treatment) came to 61.8 nM; with HT29 (setting [1]), 74.2 nM; in the assay on MDA-MB-231 (setting [2]), 91.5 nM; with PSN-1 (PSN1, 72 h, 72 hours treatment), 81.6 nM.

With `CCC[C@@H](NC(=O)[C@]1(C)CSC(/C(C)=N/O[Si](c2ccccc2)(c2ccccc2)C(C)(C)C)=N1)c1cc(OCC2CC2)cc(=O)o1` [Compound 183], the GI50 in the assay on A549 (A549, 72 hours treatment) is 5.76 nM; in the assay on HT29 (HT-29, 72 hours treatment), 5.46 nM; with MDA-MB-231 (MDA-MB-231, 72 hours treatment), 5 nM; in the assay on PSN-1 (PSN1, 72 hours treatment), 8.18 nM.

As for `CCC[C@@H](NC(=O)[C@]1(C)CSC(/C(C)=N/O[Si](c2ccccc2)(c2ccccc2)C(C)(C)C)=N1)c1cc(O)cc(=O)o1` [Compound 184], the GI50 in the assay with A549 (A549, 72 hours treatment) was 4790 nM; with HT29 (HT-29, 72 hours treatment) it was 2970 nM; in the assay on MDA-MB-231 (MDA-MB-231, 72 hours treatment), 4460 nM; in the assay on PSN-1 (PSN1, 72 hours treatment), 4130 nM.

With `C=C(OCC)C1=N[C@](C)(C(=O)N[C@H](CCC)c2cc(OCC3CC3)cc(=O)o2)CS1` [Compound 185], the GI50 with A549 (A549, 72 h, 72 hours treatment) is 161 nM; in the assay with HT29 (setting [1]), 207 nM; with MDA-MB-231 (setting [2]), 228 nM; in the assay on PSN-1 (PSN1, 72 h, 72 hours treatment), 140 nM.

Turning to `C=CCOc1cc([C@@H](CCC)NC(=O)[C@]2(C)CSC(/C(C)=N/O)=N2)[nH]c(=O)c1` [Compound 190], the GI50 turned out to be 590 nM in the assay with A549 (A549, 72 h, 72 hours treatment); 244 nM with HT29 (setting [1]); 239 nM with MDA-MB-231 (setting [2]); 344 nM with PSN-1 (PSN1, 72 h, 72 hours treatment).

With `CCC[C@@H](NC(=O)[C@]1(C)CSC(/C(C)=N/OCCCCOP(=O)(OC(C)(C)C)OC(C)(C)C)=N1)c1cc(OCC2CC2)cc(=O)o1` [Compound 191], the GI50 turned out to be 496 nM in the assay with A549 (A549, 72 h, 72 hours treatment); 554 nM in the assay on HT29 (setting [1]); 612 nM in the assay on MDA-MB-231 (setting [2]); 875 nM with PSN-1 (PSN1, 72 h, 72 hours treatment).

Turning to `CCC[C@@H](NC(=O)[C@]1(C)CSC(/C(C)=N/OCCCCOP(=O)(O)O)=N1)c1cc(OCC2CC2)cc(=O)o1` [Compound 192], the GI50 with A549 (A549, 72 h, 72 hours treatment) is 9.07 nM; with HT29 (setting [1]), 7.15 nM; with MDA-MB-231 (setting [2]) it was 16.4 nM; in the assay with PSN-1 (PSN1, 72 h, 72 hours treatment), 27.9 nM.

Turning to `CCC[C@H](NC(=O)[C@]1(C)CSC(/C(C)=N/O)=N1)c1cc(OC)cc(=O)o1` [Compound epi-1], the GI50 with A549 (A549, 72 h, 72 hours treatment) was 2880 nM; in the assay with HT29 (setting [1]), 3410 nM; in the assay with MDA-MB-231 (setting [2]), 3930 nM; with PSN-1 (PSN1, 72 h, 72 hours treatment), 5770 nM.

`COC1=CC(=O)N(C(=O)[C@H]2CSC([C@H](CO)NC(=O)c3csc(/C=N/O)n3)=N2)C1` [althiomycin]: the IC50 is 810 nM in the assay with SK-HEP-1; 770 nM in the assay with SNU-638; 850 nM in the assay on AGS; 770 nM in the assay with SNU-216; 1430 nM in the assay with HepG2; 880 nM in the assay on Hep3B.
